One assay concerns human CFTR. Kind of assay: Fluorescence membrane potential assay, CHO cell lines stably expressing CFTR. Particulars: 15,000 cells/well, 384-well plate; read-out: EC50 (cell fluorescence response). The class given is cell-based. On the procedure: CHO cell lines stably expressing CFTR were maintained under standard cell culture conditions in Ham's F12 medium supplemented with 10% fetal bovine serum and glutamine. On the day before assay, the cells were harvested from stock plates and plated into black clear-bottom 384 well assay plates. The assay plates were maintained in a 37° C. cell culture incubator under 5% CO2 for 22-24 hours. The media was then removed from the assay plates and blue membrane potential dye (Molecular Devices Inc.) diluted in loading buffer (137 mM NaCl, 5 mM KCl, 1.25 mM CaCl2, 25 mM HEPES, 10 mM glucose) was added and allowed to incubate for 1 hour at 37° C. […] The cellular response as a function of changes in cell fluorescence was monitored over time by a fluorescent plate reader (Hamamatsu FDSS). […] Z' value for the produced stable CFTR-expressing cell line was calculated using a high-throughput compatible fluorescence membrane potential assay. The fluorescence membrane potential assay protocol was performed substantially according to the protocol in Example 12. […] Cell responses in the two conditions were monitored using a fluorescent plate reader (Hamamatsu FDSS). Mean and standard deviations in the two conditions were calculated and Z' was computed using the method disclosed in Zhang et al., J Biomol Screen, 4(2): 67-73, (1999). […]

In assay [1] the target is T1, human GC-C (Homo sapiens, UniProt P25092, F281L). Conditions: Forte et al. 1999; cited from earlier work.
For assay [2], the target named is T1, human GC-C. Kind of assay: cGMP competitive ELISA / Direct Cyclic GMP Enzyme Immunoassay, GC-C-expressing 293T cell line. The class given is cell-based. Also on record: expressed in transfected cells; host or cells: 293T. On the procedure: Populations of cells were tested using functional criteria. The Direct Cyclic GMP Enzyme Immunoassay Kit (Cat. 900-014; AssayDesigns, Inc.) was used according to manufacturer's instructions: (http://www.assaydesigns.com/objects/catalog//product/extras/900-014.pdf). Cells were tested at 4 different densities in 96- or 384-well plates and responses were analyzed. The following conditions were used for the GC-C-expressing cell lines of the invention: • Clone screening: 1:2 and 1:3 splits of confluent 96-well plates 48 hour prior to assay, 30 minutes guanylin treatment. • Dose-response studies: densities of 20,000, 40,000, 60,000, 80,000, 120,000 and 160,000 per well, 30 minutes guanylin treatment (see Example 8). • Z′ studies: densities of 160,000 and 200,000 per well were used, 30 minutes guanylin treatment (see Example 9).
A competitive ELISA for detection of cGMP was used to characterize native GC-C function in the produced GC-C-expressing cell line. Cells expressing GC-C were maintained under standard cell culture conditions in Dulbecco's Modified Eagles medium (DMEM) supplemented with 10% fetal bovine serum, glutamine and HEPES and grown in T175 cm flasks. For the ELISA, the cells were plated into coated 96-well plates (poly-D-lysine).
Cells were washed twice with serum-free medium and incubated with 1 mM IBMX for 30 minutes. Desired activators (i.e., guanylin, 0.001-40 μM) were then added to the cells and incubated for 30-40 minutes. Supernatant was removed, and the cells were washed with TBS buffer. […]. This was followed by lysis with 0.1N HCl and a freeze/thaw cycle at −20° C./room temperature. […]
All of the following steps were performed at room temperature, unless otherwise indicated. […] The absorbance was then read at 405 nm on a SAFIRE^2™ plate reader (Tecan). […]
Z′ for the produced GC-C-expressing cell line was calculated using a direct competitive ELISA assay. […] Absorbance (corresponding to cGMP levels) in the two conditions was monitored using a SAFIRE^2™ plate reader (Tecan). […]
(ELISA stands for enzyme-linked immunosorbent assay.)

The subject of assay [3] is human bitter receptor-Gα15 cell lines. Kind of assay: isoproterenol dose response (intracellular free calcium) in human bitter receptor-Gα15 cell lines. The class given is cell-based. Conditions: change in intracellular free calcium, read-out: EC50 in a dose response curve conducted with the cell or cell line. An excerpt: In some embodiments, the bitter receptor is a functional bitter receptor. In some embodiments, the cell or cell line has a change in the concentration of intracellular free calcium when contacted with isoproterenol. […] In some embodiments, the cell or cell line has a signal to noise ratio of greater than 1.
According to yet another aspect of the present invention, a method of identifying a modulator of a bitter receptor function comprises: a) exposing a cell or cell line that stably expresses a bitter receptor to a test compound; and b) detecting a change in a function of the bitter receptor. In some embodiments, the detecting utilizes an assay that measures intracellular free calcium. In some embodiments, the intracellular free calcium is measured using one or more calcium-sensitive fluorescent dyes, a fluorescence microscope, and optionally a fluorescent plate reader, wherein at least one fluorescent dye binds free calcium. In some other embodiments, the intracellular free calcium is monitored by real-time imaging using one or more calcium-sensitive fluorescent dyes, wherein at least one fluorescent dye binds free calcium.
FIG. 16 is a graph showing dose response curves of relative responses to isoproterenol in 25 human bitter receptor-Gα15 cell lines.

Bridge positions count the residues as written; N and C are the ends. Peptide text beside a SMILES is read from it.

T1 sequence (P25092 24-1073 F281L): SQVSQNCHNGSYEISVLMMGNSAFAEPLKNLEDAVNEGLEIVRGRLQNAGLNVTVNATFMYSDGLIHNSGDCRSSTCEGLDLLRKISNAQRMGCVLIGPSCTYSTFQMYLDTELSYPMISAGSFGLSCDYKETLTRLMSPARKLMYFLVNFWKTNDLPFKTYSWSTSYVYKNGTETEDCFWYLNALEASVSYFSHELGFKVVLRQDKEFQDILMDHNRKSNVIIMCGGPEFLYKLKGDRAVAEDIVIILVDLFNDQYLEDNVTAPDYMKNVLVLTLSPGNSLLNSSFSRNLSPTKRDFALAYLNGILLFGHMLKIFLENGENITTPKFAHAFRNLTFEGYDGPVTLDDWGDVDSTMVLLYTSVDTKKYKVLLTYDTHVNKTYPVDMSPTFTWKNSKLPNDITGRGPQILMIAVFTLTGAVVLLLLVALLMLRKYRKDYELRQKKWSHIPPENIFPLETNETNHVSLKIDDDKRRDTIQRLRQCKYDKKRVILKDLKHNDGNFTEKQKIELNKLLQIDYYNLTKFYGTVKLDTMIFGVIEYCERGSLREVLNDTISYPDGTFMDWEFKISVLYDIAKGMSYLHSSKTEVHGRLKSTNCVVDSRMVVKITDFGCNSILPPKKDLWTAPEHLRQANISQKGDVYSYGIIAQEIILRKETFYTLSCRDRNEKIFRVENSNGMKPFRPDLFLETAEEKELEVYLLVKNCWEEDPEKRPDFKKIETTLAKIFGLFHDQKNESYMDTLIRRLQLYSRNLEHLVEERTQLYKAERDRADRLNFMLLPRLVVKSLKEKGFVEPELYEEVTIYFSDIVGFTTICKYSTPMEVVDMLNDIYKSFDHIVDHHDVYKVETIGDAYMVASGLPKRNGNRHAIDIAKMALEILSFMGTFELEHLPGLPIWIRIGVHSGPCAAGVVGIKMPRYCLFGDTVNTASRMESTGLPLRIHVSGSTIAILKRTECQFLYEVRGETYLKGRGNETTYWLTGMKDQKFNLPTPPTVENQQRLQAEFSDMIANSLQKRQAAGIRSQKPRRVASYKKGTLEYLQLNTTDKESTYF

A word on the EC50: it is the concentration needed to bring the measured effect to its halfway point. Turning to `C=C[C@@]1(C)CC(=O)[C@]2(O)[C@@]3(C)[C@@H](O)CCC(C)(C)[C@@H]3[C@H](O)[C@H](OC(C)=O)[C@@]2(C)O1` [forskolin], the concentration for a half-maximal effect (EC50) in the assay on human CFTR stood at 256 nM.

In the case of `CC[C@H](C)[C@@H]1NC(=O)[C@H](CCC(=O)O)NC(=O)[C@@H](NC(=O)[C@@H](NC(=O)CNC(=O)[C@@H]2CCCN2)[C@@H](C)O)CSSC[C@@H]2NC(=O)[C@H](C)NC(=O)[C@H](C)NC(=O)[C@H](Cc3ccc(O)cc3)NC(=O)[C@H](C)NC(=O)[C@H](CSSC[C@@H](C(=O)O)NC(=O)CNC(=O)[C@H]([C@@H](C)O)NC2=O)NC1=O` [guanylin] (H-PGTCEICAYAACTGC-OH; disulfide 4-12, 7-15 (inferred); N-terminus and C-terminus assumed), the “level of cGMP previously reported in other cell lines” value at human GC-C [1] is 3.5 pmol/mL. Moreover, the “absorbance in cGMP ELISA (reduction corresponds to increased cGMP levels)” value at human GC-C [2] (100 nM guanylin) is given as “Reduction in absorbance”. Also, the EC50 on human GC-C [2] (30 minutes treatment, 96-well plate, read-out: EC50 value (cGMP response)) is 1.1 nM. The “level of cGMP” value on human GC-C [2] (produced GC-C-expressing cell line, low concentrations of guanylin) was found to be 6 pmol/mL.

Turning to `CC(C)NCC(O)c1ccc(O)c(O)c1` (stereo not drawn) [isoproterenol], the EC50 in assay [3] fell in the range of 1 to 20 nM.
